Measured values as given in patent US7601713B2, “Kinase inhibitors and their uses” (Rigel Pharmaceuticals, Inc., priority 2005, dated 2009).

Biological target: T1, Axl kinase (Homo sapiens, UniProt P30530)
T1 construct: endogenous in cells; host or cells: HeLa cells
T1 sequence (P30530 26-894): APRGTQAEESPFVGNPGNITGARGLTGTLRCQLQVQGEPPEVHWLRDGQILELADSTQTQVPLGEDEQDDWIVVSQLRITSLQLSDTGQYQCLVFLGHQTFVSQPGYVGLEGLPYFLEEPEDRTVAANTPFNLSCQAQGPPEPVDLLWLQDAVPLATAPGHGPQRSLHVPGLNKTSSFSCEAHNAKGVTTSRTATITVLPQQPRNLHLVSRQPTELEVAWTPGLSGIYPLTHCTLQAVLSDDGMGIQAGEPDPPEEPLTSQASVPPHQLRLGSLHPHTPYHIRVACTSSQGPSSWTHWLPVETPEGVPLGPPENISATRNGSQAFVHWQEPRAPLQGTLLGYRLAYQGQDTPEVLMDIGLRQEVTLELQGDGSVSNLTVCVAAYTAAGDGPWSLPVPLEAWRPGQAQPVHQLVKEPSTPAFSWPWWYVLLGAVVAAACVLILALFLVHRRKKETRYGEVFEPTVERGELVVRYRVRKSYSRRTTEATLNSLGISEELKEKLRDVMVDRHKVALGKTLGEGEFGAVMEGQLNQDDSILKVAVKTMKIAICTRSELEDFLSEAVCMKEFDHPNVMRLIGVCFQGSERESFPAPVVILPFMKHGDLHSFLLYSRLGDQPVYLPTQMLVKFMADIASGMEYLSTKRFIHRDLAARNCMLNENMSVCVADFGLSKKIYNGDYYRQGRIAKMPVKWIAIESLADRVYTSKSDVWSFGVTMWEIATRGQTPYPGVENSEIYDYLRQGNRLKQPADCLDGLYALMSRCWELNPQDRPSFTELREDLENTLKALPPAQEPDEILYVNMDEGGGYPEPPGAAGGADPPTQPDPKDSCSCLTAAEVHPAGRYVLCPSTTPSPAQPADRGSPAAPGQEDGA
Test: Phospho-Akt in-cell Western assay (Axl antibody cross-linking, Hela cells)
Format: cell-based
Details: phospho-Akt readout, read-out: IC50, inhibition of Axl kinase
Method: The compounds of the invention were tested in the following assay for their ability to inhibit Axl activity.
Phospho-Akt in-Cell Western Assay
Starvation medium: For Axl stimulation: 0.5% FCS (fetal calf serum) in DMEM, plus Axl/Fc (extracellular domain of AXL fused to immunoglobulin Fc region) (R&D, 154-AL) 500 ng/mL.
Axl antibody cross-linking: • 1st: Mouse anti-Axl (R&D, MAB 154). • 2nd: Biotin-SP-conjugated AffiniPure goat anti-mouse IgG (H+L) (Jackson ImmunoResearch #115-065-003).
Primary antibody: Rabbit anti-human Phospho-Akt antibody (Cell Signaling 9271): 1×250 diluted in blocking buffer.
Secondary antibody: HRP (horse radish peroxidase)-conjugated Goat anti-Rabbit secondary, stock solution: Jackson lmmunoResearch (Goat anti-Rabbit HRP, #111-035-144) 1:1 diluted in glycerol, store at −20° C. The working solution: 1×2000 dilution of stock in blocking buffer.
A 96 well TC (tissue culture treated) plate was coated with 10 μg/mL poly-L-Lysine at 37° C. for 30 min, washed twice with PBS, and air-dried for 5 minutes before cells were added. Hela cells were seeded at 10,000 cells/well and the cells were starved in 100 μL starvation medium containing Axl/Fc for 24 hrs.
The cells were pre-treated with test compounds by adding 100 μL of 2× test compound to the starvation medium on the cells. The cells were incubated at 37° C. for 1 hr before stimulation.
The cells were stimulated by Axl-antibody cross-linking as follows: A 5× 1st/2nd Axl antibody mixture was made (37.5 μg/mL 1st/100 μg/mL 2nd) in starvation medium and nutated at 4° C. with thorough mixing for 1-2 hours for clustering. The resulting mix was warmed to 37° C. 50 μL of 5× Axl 1st/2nd of antibody cluster was added to the cells and the cells were incubated at 37° C. for 5 min.
After 5 minutes stimulation, the plate was flicked to remove medium and the plate was tapped onto paper towels. Formaldehyde (4.0% in PBS, 100 μL) was added to fix the cells and the cells were incubated at ambient temperature for 20 min without shaking.
The cells were washed with a plate washer buffer to remove the formaldehyde solution. The plate was flicked to remove excess wash buffer and tapped onto paper towels. Quenching buffer (100 μL) was added to each well and the cells were incubated at ambient temperature for 20 minutes without shaking.
The cells were washed with a plate washer buffer to remove the quenching buffer. Blocking buffer (100 μL) was added and the cells were incubated at ambient temperature for at least an hour with gentle shaking.
The cells were washed with a plate washer buffer and diluted primary antibody (50 μL) was added to each well (blocking buffer was added to the negative control wells instead). The plates were incubated overnight at 4° C. with gentle shaking.
The wash buffer was removed, diluted secondary antibody (100 μL) was added, and the cells were incubated at ambient temperature for 1 hour with gentle shaking. During the incubation, the chemiluminescent reagent was brought to ambient temperature.
The secondary antibody was removed by washing the cells 1× with wash buffer, 1× with PBS by plate washer. The PBS was removed from the plate and the chemiluminescent reagent (80 μL: 40 μL A and 40 μL B) was added to each well at ambient temperature.
The resulting chemiluminescence was read with a Luminomitor within 10 minutes to minimize changes in signal intensity. After reading the chemiluminescence, the cells were washed 1× with wash buffer and 1× with PBS by plate washer. The plate was tapped onto paper towels to remove excess liquid from wells and air-dried at ambient temperature for 5 minutes.
Crystal Violet working solution (60 μL) was added to each well and the cells were incubated at ambient temperature for 30 min. The crystal violet solution was removed, and the wells were rinsed with PBS, then washed 3× with PBS (200 μL) for 5 minutes each.
5% SDS solution (70 μL) was added to each well and the cells were incubated on a shaker for 30 min at ambient temperature. […]

Compound | IC50 [µM]
Cc1cc(Nc2nc(NC3C4C=CC(C4)C3C(N)=O)c3ccccc3n2)ccc1OCCN1CCCC1 (racemic) [Compound 215, Racemic-(2-exo,3-exo)-N4-(3-aminocarbonylbicyclo [2.2.1]hept-5-en-2-yl)-N2-(3-methyl-4-(2-(1-pyrrolidinyl)ethoxy)phenyl)-2,4-quinazoline-diamine] | < 5
NC(=O)C1C2C=CC(C2)C1Nc1nc(Nc2ccc(OCCN3CCCC3)c(Cl)c2)nc2ccccc12 (racemic) [Compound 216, Racemic-(2-exo,3-exo)-N4-(3-aminocarbonylbicyclo [2.2.1]hept-5-en-2-yl)-N2-(3-Chloro-4-(2-(1-pyrrolidinyl)ethoxy)phenyl)-2,4-quinazoline-diamine] | < 5
CCN(CC)C(=O)c1cccc(Nc2nc(NC3C4C=CC(C4)C3C(N)=O)c3cc[nH]c3n2)c1 (racemic) [Compound 222, Racemic-(2-exo,3-exo)-N4-(3-aminocarbonylbicyclo [2.2.1]hept-5-en-2-yl)-N2-(3-N,N-diethyl-aminocarbonyl-phenyl)-1H-pyrrolo[2,3-d]pyrimidine-2,4-diamine] | < 5
CONC(=O)Cc1cccc(Nc2nc(NC3C4C=CC(C4)C3C(N)=O)c3cc[nH]c3n2)c1 (racemic) [Compound 229, Racemic-(2-exo,3-exo)-N4-(3-aminocarbonylbicyclo [2.2.1]hept-5-en-2-yl)-N2-[3-(N-methoxy)-aminocarbonyl-methylphenyl]-1H-pyrrolo[2,3-d]pyrimidine-2,4-diamine] | < 10
CCOC(=O)C1C2C=CC(C2)C1Nc1nc(Nc2cccc(OC)c2)nc2[nH]ccc12 (racemic) [Compound 232, Racemic-(2-exo,3-exo)-N4-(3-ethoxycarbonylbicyclo [2.2.1]hept-5-en-2-yl)-N2-(3-methoxyphenyl)-1H-pyrrolo[2,3-d]pyrimidine-2,4-diamine] | < 10
NC(=O)C1C2C=CC(C2)C1Nc1nc(Nc2ccc(OCCN3CCCC3)cc2)nc2[nH]cnc12 (racemic) [Compound 234] | < 5
CNC(=O)[C@H]1C[C@H]2CC(C2(C)C)[C@@]1(C)Nc1nc(Nc2ccc(OCCN3CCCC3)cc2)nc2ccsc12 (stereo in doubt) [Compound 197, (1S,2R,3S,5R)-N,2,6,6-tetramethyl-2-(2-(4-(2-(pyrrolidin-1-yl)ethoxy)phenylamino)thieno[3,2-d]pyrimidin-4-ylamino)bicyclo[3.1.1] heptane-3-carboxamide] | < 5
CNC(=O)[C@H]1CC2CC(C2(C)C)[C@@]1(C)Nc1nc(Nc2ccc(N3CCN(C4CCCCC4)CC3)cc2)nc2ccsc12 (stereo in doubt) [Compound 198, (1S,2R,3S,SR)-2-(2-(4-(4-cyclohexylpiperazin-1-yl)phenylamino)thieno [3,2-d]pyrimidin-4-ylamino)-N,2,6,6-tetramethylbicyclo[3.1.1] heptane-3-carboxamide] | < 5
NC(=O)C1C2C=CC(C2)C1Nc1nc(Nc2ccc3c(c2)OCCCO3)nc2ccsc12 (stereo not shown) [Compound 182, 3-(2-(3,4-dihydro-2H-benzo[b][1,4]dioxepin-7-ylamino)thieno[3,2-d]pyrimidin-4-ylamino)bicyclo[2.2.1] hept-5-ene-2-carboxamide] | < 5
NC(=O)C1C2C=CC(C2)C1Nc1nc(Nc2ccc(OCCN3CCCC3)cc2)nc2c1CCC2 (stereo not shown) [Compound 185, 3-(2-(4-(2-(pyrrolidin-1-yl)ethoxy)phenylamino)-6,7-dihydro-5H-cyclopenta[d]pyrimidin-4-ylamino)bicyclo[2.2.1] hept-5-ene-2-carboxamide] | < 5
NC(=O)C1C2C=CC(C2)C1Nc1nc2c(c(Nc3ccc(OCCN4CCCC4)cc3)n1)CN(Cc1ccccc1)CC2 (stereo not shown) [Compound 186, 3-(6-benzyl-4-(4-(2-(pyrrolidin-1-yl)ethoxy)phenylamino)-5,6,7,8-tetrahydropyrido[4,3-d]pyrimidin-2-ylamino)bicyclo[2.2.1] hept-5-ene-2-carboxamide] | < 5
NC(=O)[C@H]1C2C=CC(C2)[C@H]1Nc1nc(Nc2ccc(OCCN3CCCC3)cc2)nc2c1cnn2Cc1ccccc1 (stereo partly drawn) [Compound 189, (2S,3R)-3-(1-benzyl-6-(4-(2-(pyrrolidin-1-yl)ethoxy)phenylamino)-1H-pyrazolo[3,4-d]pyrimidin-4-ylamino)bicyclo[2.2.1] hept-5-ene-2-carboxamide] | > 10
CCOC(=O)N1CCN(c2ccc(Nc3nc(N[C@@H]4C5C=CC(C5)[C@@H]4C(N)=O)c4sccc4n3)cc2F)CC1 (stereo partly drawn) [Compound 208, ethyl 4-(4-(4-((2R,35)-3-carbamoylbicyclo[2.2. 1]hept-5-en-2-ylamino)thieno[3,2-d]pyrimidin-2-ylamino)-2-fluorophenyl)piperazine-1-carboxylate] | > 10
CC1CCN(C2CCN(c3ccc(Nc4nc(N[C@@H]5C6C=CC(C6)[C@@H]5C(N)=O)c5sc(C(F)(F)F)cc5n4)cc3F)CC2)CC1 (stereo partly drawn) [Compound 209, (2S,3R)-3-(2-(3-fluoro-4-(4-methyl-1,4′-bipiperidin-1′-yl)phenylamino)-6-(trifluoromethyl)thieno [3,2-d]pyrimidin-4 ylamino)bicyclo[2.2.1] hept-5-ene-2-carboxamide] | < 5
NC(=O)[C@H]1C2C=CC(C2)[C@H]1Nc1nc(Nc2ccc(OCCN3CCCC3)cc2)nc2cc(C(F)(F)F)sc12 (stereo partly drawn) [Compound 210, (2S,3R)-3-(2-(4-(2-(pyrrolidin-1-yl)ethoxy)phenylamino)-6-(trifluoromethyl)thieno [3,2-d]pyrimidin-4-ylamino)bicyclo[2.2.1] hept-5-ene-2-carboxamide] | > 10
NC(=O)[C@H]1C2C=CC(C2)[C@H]1Nc1nc(Nc2ccc(C(=O)N3CCN(C4CCCCC4)CC3)cc2)nc2cc(C(F)(F)F)sc12 (stereo partly drawn) [Compound 211, (2S,3R)-3-(2-(4-(4-cyclohexylpiperazine-1-carbonyl)phenylamino)-6-(trifluoromethyl)thieno [3,2-d]pyrimidin-4 ylamino)bicyclo[2.2.1] hept-5-ene-2-carboxamide] | < 10
